# Source: ChEMBL document CHEMBL1201862, “PubChem BioAssay data set” (2004)
# The source made the active and inactive calls. Cut-off read from the data, not from the text of the source, for most assays here: actives have a measured EC50 and inactives only a lower limit.
# Columns and labels:
# [1] = inhibitors of firefly luciferase expression or activity, dose response, H4 neuroglioma cells, luminescence (AID 1990); format: functional, cell-based
# [2] = system: Streptococcus sp. 'group A'; assay: growth inhibition of control SK(-) GAS strain, dose response, counter-screen for streptokinase expression inhibitor project, luminescence, kanamycin, BacTiterGlo, confirmation (AID 1900); format: functional, organism-based
# [3] = C. albicans growth with fluconazole, confirmation, fluorescence, retest (AID 2467); format: functional, cell-based
# [4] = Luminescence Cell-Based Dose Response HTS to Identify Inhibitors of 5'UTR Stem-Loop Driven Prion Protein mRNA Translation in H4 Neuroglioblastoma Cells. [Related pubchem assays: 1827 (Project Summary), 1813 (Primary HTS)]; format: functional
# [5] = system: Streptococcus; assay: Group A Streptococcus viability loss, dose response, counter-screen for streptokinase expression inhibitor project, luminescence, BacTiterGlo (AID 1915); format: functional, organism-based;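 note: potency for reduction of bacterial viability or growth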
# [6] = NIH-3T3 fibroblast cytotoxicity, dose response, cytotoxicity control, cell-based, fluorescence, Alamar Blue, secondary assay (AID 2327); format: functional;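 note: NIH-3T3 mouse fibroblasts cultured with fluconazole at 8 µg/mL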
# [7] = inhibitors of SNCA 5'UTR-driven reporter translation, confirmation, H4 neuroglioma cells, luminescence (AID 1988); format: functional, cell-based
# [8] = target: T1, Streptokinase A (Streptococcus pyogenes serotype M1, UniProt P10520); assay: S. pyogenes streptokinase expression inhibitors, potency, dose response, plasminogen activation absorbance, OD405 (AID 1914); format: functional, Streptococcus pyogenes M1 GAS;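 note: secreted streptokinase activity via plasminogen activation per viability signal from cell pellet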
# T1 sequence (P10520 whole entry): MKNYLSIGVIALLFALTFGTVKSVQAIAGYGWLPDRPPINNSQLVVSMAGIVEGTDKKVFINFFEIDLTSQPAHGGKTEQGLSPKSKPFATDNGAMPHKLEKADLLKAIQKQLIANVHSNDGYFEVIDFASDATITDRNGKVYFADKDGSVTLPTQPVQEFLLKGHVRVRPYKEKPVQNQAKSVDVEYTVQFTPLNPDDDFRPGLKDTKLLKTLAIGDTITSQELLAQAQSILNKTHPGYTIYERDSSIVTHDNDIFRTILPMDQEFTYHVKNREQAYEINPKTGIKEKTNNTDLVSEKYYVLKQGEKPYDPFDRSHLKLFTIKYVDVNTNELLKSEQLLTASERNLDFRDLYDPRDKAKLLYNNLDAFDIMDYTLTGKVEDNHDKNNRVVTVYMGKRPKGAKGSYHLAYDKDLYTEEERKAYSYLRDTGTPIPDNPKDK
# [9] = cells; format: functional
# [10] = HEp-2 cell cytotoxicity, dose response, cytotoxicity control for RSV inhibitor project, HTS (AID 2410); format: functional; settings: human respiratory syncytial virus
# [11] = target: T2, Corticotropin-releasing factor receptor 2/Corticotropin-releasing factor-binding protein (Homo sapiens, UniProt P24387+Q13324); assay: activators of CRF receptor 2 with binding protein – uHTS hits, confirmation (AID 602473); format: functional; settings: read-out: EC50_Mean
# T2 sequence (Q13324 whole entry): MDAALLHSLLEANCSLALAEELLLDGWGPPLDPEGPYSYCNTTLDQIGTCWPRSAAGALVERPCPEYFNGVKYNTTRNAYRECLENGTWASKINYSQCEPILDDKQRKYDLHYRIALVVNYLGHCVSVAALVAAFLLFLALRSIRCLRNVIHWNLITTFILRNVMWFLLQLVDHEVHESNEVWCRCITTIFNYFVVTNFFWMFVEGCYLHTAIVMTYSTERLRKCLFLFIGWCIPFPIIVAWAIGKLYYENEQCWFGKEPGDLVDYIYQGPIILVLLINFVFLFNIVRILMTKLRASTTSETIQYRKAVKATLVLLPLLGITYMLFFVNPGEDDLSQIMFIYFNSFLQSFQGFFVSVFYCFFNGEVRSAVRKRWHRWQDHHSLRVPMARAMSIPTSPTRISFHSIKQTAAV
# T2 sequence (P24387 whole entry): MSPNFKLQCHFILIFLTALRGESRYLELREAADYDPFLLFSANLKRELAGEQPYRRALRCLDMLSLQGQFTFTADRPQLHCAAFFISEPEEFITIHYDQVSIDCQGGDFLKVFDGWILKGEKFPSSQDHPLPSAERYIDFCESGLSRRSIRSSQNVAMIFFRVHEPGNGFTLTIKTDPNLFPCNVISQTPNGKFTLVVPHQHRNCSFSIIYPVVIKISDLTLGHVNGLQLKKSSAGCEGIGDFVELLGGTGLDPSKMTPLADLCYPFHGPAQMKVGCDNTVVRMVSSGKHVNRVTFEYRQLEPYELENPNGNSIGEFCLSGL
# [12] = target: T2, Corticotropin-releasing factor receptor 2/Corticotropin-releasing factor-binding protein; assay: Dose Response confirmation of uHTS hits for small molecule antagonists of the CRF-binding protein and CRF-R2 receptor complex.; format: functional; settings: read-out: IC50_Mean
SMILES,EC50 [2],EC50 [5],EC50 [8],IC50 [9],also measured
COc1cc(C(=O)NC(=S)N(CCc2ccccc2)CCc2ccccc2)cc(OC)c1OC,0.525 µM (active),17.9 µM (active),> 150 µM (not active),,EC50 [1]: > 120 µM (not active); EC50 [3]: 4.2 µM (active); EC50 [4]: 12.2 µM (active); EC50 [6]: 28.6 µM (active); EC50 [7]: 10.6 µM (active)
COc1ccc2c(c1)c(CC(=O)Nc1cccc(S(N)(=O)=O)c1)c(C)n2C(=O)c1ccc(Cl)cc1,5.48 µM (active),> 50 µM (not active),> 150 µM (not active),,
Cc1cccc(OCC(=O)Nc2ccncc2)c1,> 150 µM (not active),> 150 µM (not active),> 150 µM (not active),,
Cc1ccc(/C=C2\SC(N3CCCC3)=NC2=O)cc1,,,,5.13 µM (active),
O=C(OCc1c(Cl)cccc1Cl)c1ccccn1,,,,10.6 µM (active),
O=C(CC1CCCC1)OCn1nnc2ccccc2c1=O,,,,11.1 µM (active),
Nc1[nH]nc(C2CC2)c1N=Nc1ccc(Cl)c(Cl)c1,4.36 µM (active),> 150 µM (not active),17 µM (active),,CC50 [10]: 17.5 µM (active)
COc1cccc(OC(=O)c2cc3ccccc3oc2=O)c1,,,,> 50 µM (active),
COC(=O)C1(C(C[N+](=O)[O-])c2ccc(C)cc2)C(=O)NCC1c1ccco1 (centres undefined),8.44 µM (active),76.6 µM (active),> 150 µM (inconclusive),,
COc1cccc(C(=O)N2C(C(=O)O)CSC2c2ccccc2Cl)c1 (centres undefined),> 150 µM (not active),> 150 µM (not active),> 150 µM (not active),,
O=C(Nc1nnc(-c2ccc(Br)cc2)o1)c1cccc(N2C(=O)CCC2=O)c1,4.43 µM (active),14.1 µM (active),> 150 µM (not active),,
CSCSC1=C(C#N)C(c2ccccc2Cl)C(C(C)=O)=C(C)N1 (centres undefined),,,,,EC50 [11]: > 53 µM (inactive); IC50 [12]: > 47.1 µM (inactive)
CC1C(=O)C(C)C(c2cccs2)NC1c1cccs1 (centres undefined),,,,,EC50 [11]: > 53 µM (inactive); IC50 [12]: > 47.1 µM (inactive)
CCOC(=O)CN(C#N)c1nc(N(C)C)nc(N(C)C)n1,,,,26.9 µM (active),
O=C(NCc1ccc2c(c1)OCO2)C(=O)NCC1OCCN1S(=O)(=O)c1ccc(Br)cc1 (centres undefined),> 150 µM (not active),> 150 µM (not active),> 150 µM (inconclusive),,
Nc1nc(NCc2ccco2)nc(N2CCCCCC2)c1[N+](=O)[O-],2.82 µM (active),7.75 µM (active),> 150 µM (not active),,
FC(F)(F)c1nnc2sc(-c3cccs3)nn12,,,,,EC50 [11]: > 53 µM (inactive); IC50 [12]: > 47.1 µM (inactive)
CN(C(=O)COC(=O)c1ccc([N+](=O)[O-])cc1Cl)C1CCCCC1,,,,6.26 µM (active),
COC(=O)C(OC(=O)c1ccccc1)C(C)Br (centres undefined),,,,,EC50 [11]: > 53 µM (inactive); IC50 [12]: > 47.1 µM (inactive)
COc1ccc(/C=C2\CCC(C3CCCC3)C2=O)cc1OC (centres undefined),,,,,EC50 [11]: > 53 µM (inactive); IC50 [12]: > 47.1 µM (inactive)
